Results from patent US12240921B2, “Peptides” (priority 2022, dated 2025).
Starred links: 1 amine or outer side, 2 acyl side, 3 side chain; linkers in the order of their positions; H or OH if unused. Groups on a side chain read outwards from the residue. No end group written: not given here. *: point of attachment. C18 diacid = O=C(O)CCCCCCCCCCCCCCCCC(=O)*; γGlu = O=C(O)[C@H](CCC(=O)[*:2])N[*:1]; AEEA = NCCOCCOCC(=O)O

Columns and labels:
[1] = test system: Wistar Kyoto rats; experiment: Wistar Kyoto (WKY) rat model of depression: EEG/EMG sleep-wake recording; type: in vivo; details: single injection, 0-3 h post dosing
Method: Ketamine (10 mg/kg), a N-methyl-D-aspartate-receptor antagonist, was used as positive control. All rats received all treatments 2 h after light onset in a pseudo randomized crossover fashion with a minimum period of 3 days between treatments. The rats were placed individually in recording boxes, and sleep-wake behaviour was recorded for 24 h. EEG/EMG signals were amplified, analogue filtered (0.5-100 Hz), digitized (500 Hz), and then digitally filtered (EEG: 0.5-100 Hz and EMG: 70-100 Hz). EEG/EMG recordings were semi-automatically scored as wake, non-REM (NREM) sleep, or REM sleep in 10 s epochs using SleepSign. Sleep stages were defined as below: […]

[2] = test system: BDNF; experiment: In vivo efficacy in wild-type mice, single SC dose: BDNF levels (western blotting); design: species or system mouse; details: single SC dose: LLP11 21 mg/kg, LLP12 26 mg/kg, CLP11 21 mg/kg; 4 and 8 hours
Method: 4 and 8 hour timepoints were chosen.
4-hour timepoint were chosen.

| Molecule | REM & NREM sleep [1] | time spent awake (wakefulness) [1] | BDNF levels in vivo [2] |
| --- | --- | --- | --- |
| CNC1(c2ccccc2Cl)CCCCC1=O (stereo not drawn) [ketamine] | at the expense of REM & NREM sleep | increased time spent awake |  |
| LLP12: Linear lipidated peptide K*EQEMTEPVEHEEDV-NH2, * = C18DA-γGlu-OEG-OEG- (K([AEEA-AEEA-γGlu-C18 diacid])EQEMTEPVEHEEDV-NH2; N-terminus assumed; SMILES CSCC[C@H](NC(=O)[C@H](CCC(=O)O)NC(=O)[C@H](CCC(N)=O)NC(=O)[C@H](CCC(=O)O)NC(=O)[C@@H](N)CCCCNC(=O)COCCOCCNC(=O)COCCOCCNC(=O)CC[C@H](NC(=O)CCCCCCCCCCCCCCCCC(=O)O)C(=O)O)C(=O)N[C@H](C(=O)N[C@@H](CCC(=O)O)C(=O)N1CCC[C@H]1C(=O)N[C@H](C(=O)N[C@@H](CCC(=O)O)C(=O)N[C@@H](Cc1c[nH]cn1)C(=O)N[C@@H](CCC(=O)O)C(=O)N[C@@H](CCC(=O)O)C(=O)N[C@@H](CC(=O)O)C(=O)N[C@H](C(N)=O)C(C)C)C(C)C)[C@@H](C)O) |  |  | increase BDNF in vivo |
